From patent US11344709B2, “Fluid delivery apparatus having a controller assembly and method of use” (SORRENTO THERAPEUTICS, INC., priority 2016, dated 2022)
Where two headings read alike, the source gives them in different places.

Legend:
[1] = Porcine Pharmacokinetic Study (FIG. 50): sumatriptan in blood serum after delivery from the fluid delivery apparatus; format: in vivo, Yorkshire pigs; settings: 20 mg dose from the fluid delivery apparatus (microneedles), pig; actual profile FIG. 50 compared with nasal, oral and Zecuity (FIG. 49)
Procedure: In reference to FIG. 50, shown is the time versus concentration profile of sumatriptan as administered according to the methods and devices disclosed herein. An ideal profile (identified as “Target PK Profile”) is calculated based on the therapeutic efficiency of the medicament.
Thirty five 80 kg castrated or female Yorkshire pigs were placed under anesthesia and a catheter was inserted into the right or left jugular vein. After the catheter was placed, the pigs were kept under anesthesia and placed on their backs. The ventral region was shaved and covered with a depilatory cream (Nair Sensitive®) for 8 minutes. The cream was removed and the area washed with alcohol. The fluid delivery apparatus was placed against the skin with an adhesive and the microneedles (100 total) were inserted at a post traveling velocity of 6 m/s. A 20 mg dose of sumatriptan from the fluid deliver apparatus was delivered while the pig was under anesthesia. 3 mL blood samples were withdrawn at each time point and spun down to recover the blood serum.

[2] = FIG. 49, cited from earlier work
[3] = nasal administration, compared with actual profile of the fluid delivery apparatus (FIG. 50)
[4] = subcutaneous administration, compared with the other routes of administration

AUC [1]: significantly improved
Css [1]: significantly improved
Tmax [1]: significantly improved
Structure (SMILES): CNS(=O)(=O)Cc1ccc2[nH]cc(CCN(C)C)c2c1.O=C(O)CCC(=O)O [sumatriptan, 1-[3-[2-(dimethylamino)ethyl]-1H-indol-5-yl]-N-methylmethanesulfonamide butanedioic acid]
AUC [2, 3]: significantly lower
Css [2, 3]: significantly lower
Tmax ([2]; oral administration, compared with actual profile of the fluid delivery apparatus (FIG. 50)): much slower
Css ([2]; subcutaneous administration): significantly lower as time progresses
Cmax [2, 4]: higher
Tmax [2, 4]: much faster
